“Also recorded” adds a separate entry of the source.
How the values were obtained:
[1] = system: Arthritis Induced by the Freund Adjuvant; test: Adjuvant arthritis; type: in vivo; details: rat, i.g.
Method: test animals used are the same as described under Example E; food and water is given ad libitum.
On the first day of the test a 0.8% suspension of Mycobacterium butyrium in paraffin (0.05 or 0.1 ml/paw) is injected subplantarly into the left hind paw of the animals. […] From the 19th to the 22nd day the animals showing a reaction are treated intragastrically with the test substances. The right paw having been marked above the ankle-joint, the volume is determined daily from the 19th to the 22nd or 23rd day, according to the process described under Example B.
The volume of liquid, as well as of the carrier administered, corresponded to that described in the above tests.

[2] = Overall summary of pharmacological results in words; type: in vivo
[3] = system: increased body temperature of the rat; test: Antipyresis (yeast-induced fever); type: in vivo; details: i.g.
Method: test animals are male rats (SIV 50) weighing 100 to 180 g. 16 hours prior to the beginning of the test a 12% suspension of dried yeast (1 or 2 ml/100 g of body weight) is injected subcutaneously. When the maximum of the increase in body temperature is reached, following 3 to 4 initial measurements, the test substances are applied intragastrically and the development of the body temperature is observed for a period of 7 hours.
The test substances administered are suspended in Tragacanth mucilage; the volume of liquid administered amounting to 2 ml/100 g of body weight. In this test 2 control groups are used, one given sodium chloride subcutaneously (normal temperature group) and to the other group a yeast suspension is administered subcutaneously but, instead of the test substances, Tragacanth mucilage is administered intragastrically (fever control group).

[4] = Summary: calculated ED50 and therapeutic ratio; type: in vivo, rat; details: for ED50: Rattus norvegicus; for therapeutic ratio: from ED50 and LD50 (A)
Method: From the ED50 and LD50 (A) the following therapeutic ratios for this test are calculated: […]

[5] = system: Carrageenin Edema of the Rat Paw; test: Carrageenin edema of the rat paw; type: in vivo
Method: test animals used are the same as stated under Example B and up to the initial measurement, the procedure corresponded to that described under this example.
After an initial measurement, the test substances are administered and after 60 minutes a 1% Carrageenin suspension is injected subplantarly (0.1 ml/paw). After 60 and 180 minutes the paw volume is again determined. Here, too, the blank control group was treated with the carrier alone.
The increase in the volume of the paw after 60 minutes is considered as the first phase of the biphase edema and that after 180 minutes, as compared to the 60-minute-value, as the second phase. Moreover, the total increase of the paw edema within 180 minutes, as compared to the initial value, is also determined.
Determination of the influence exerted by the substances upon the development of the paw edema and calculation of the ED50 are done as under Example B.

[6] = system: Granulation Tissue; test: Cotton-pellet test (granulation tissue); type: in vivo; details: rat; for Granulation Tissue % (Dry Weight) / Increase in Body Weight: i.g.; for granulation tissue % dry weight: section K
Method: test animals are male rats (SIV 50) weighing 110 to 200 g. All test animals are kept fasting for 16 to 18 hours prior to the implantation of the pellets; after that food and water were available ad libitum. Each dose level of the chemical tested was administered to 12 animals. The substances were suspended in 1% Tragacanth mucilage and administered intragastrically by means of a stomach tube. The substances to be investigated and the control suspensions are administered once on the operating day following operation, and twice a day on the following 6 days (at intervals of 6 to 8 hours). The type of application and volume of liquid corresponded to that under B.
Under light ether anesthesia 4 sterile cotton pellets were implanted under the skin on the back of the animal. The weight of one pellet was 50 mg ± 0.5 mg. After 7 days treatment, the animals were sacrificed, the pellets removed with the granulation tissue, weighed and then dried in the incubator at +80°C to constant weight. The average dry weight of the granulation tissue of the control group was rated 100%, and deviations of the mean weights of the group treated with the test substance determined as a percentage thereof.
The weight of the animals is measured daily throughout the tests, and the percental increase determined. At the end of some tests, moreover, the suprarenal glands are removed and their weight determined.

[7] = system: Kaolin Edema of the Rat Paw; test: Kaolin edema of the rat paw; type: in vivo
Method: test animals used are the same as stated under Example B and up to the beginning of the test, the procedure corresponded to that described under this example.
After an initial measurement, a sterile 25% kaolin suspension was injected (0.05 ml/paw) subplantarly. The test substances are administered immediately, and after 60, 120, and 180 minutes the paw volume is again determined.
Evaluation of the tests was performed as stated under Example C, and the results so obtained presented below: […]

[8] = system: Granuloma Pouch; test: Granuloma pouch test; type: in vivo; details: rat, i.g.
Method: Under light ether anesthesia 25 ml of air are injected under the shaved skin of the back. 0.5 ml of croton oil/animal (0.05%) are injected into the pouch formed by the air, and evenly distributed over the back by turning the animal.
On the third day croton oil (3%, 0.5 ml/animal) is again injected into this pouch.
The average dry weights of the granuloma pouches and the quantities of secretion of the groups subjected to treatment are then compared with those of the control group and the percental deviations calculated.
At the end of some tests the suprarenal glands are removed and the weight of these organs is also determined.
The weight of the animals is measured daily and the changes determined as a percentage.

[9] = system: male mice (NMRI); details: mouse, in vivo
[10] = system: male mice (NMRI); test: Hot-plate test (analgesia); type: in vivo; details: mouse
Method: male mice (NMRI) weighing 18 to 28 g are used as test animals. The animals are placed on a copper plate constantly kept at 55°C, and the time is measured until they lick their forepaws.
Following 3 initial measurements, the test substances are administered intragastrically. Afterwards the measurements are repeated over a period of 2 hours at intervals of 30 minutes. Each dose is administered to 10 animals selected from groups of 15 animals following the initial measurements.
The test substances are administered as a suspension in 1% Tragacanth mucilage, the volume of liquid amounting to 2 ml/100 g of body weight.
For the purpose of statistical evaluation according to Litchfield and Wilcoxon, those animals in which the reaction time has been extended by at least 100% are considered protected.

[11] = system: Yeast Edema of the Rat Paw; test: Yeast edema and determination of pain threshold in the rat paw; type: in vivo; details: 3 h; for Pain Threshold (change vs initial value) / Volume (increase in paw volume, blank control = 100%): i.g.
Method: test animals are male rats (SIV 50) weighing 100 to 180 g. […] 10 animals belonged to each dosage group.
The volume of the paw is determined according to the method described by Enders and Heidbrink, the pain threshold according to that described by Randall and Selitto (Arch. Int. Pharmacodyn CXI: 409, 1957).
Following initial measurements, […] of a 5% suspension of dried yeast is injected subplantarly into the right paw and the test substances are administered immediately. The blank control group is given Tragacanth mucilage only. After 3 hours the pain threshold and the volume of the paw are determined again.
The mean value of the increase in paw volume of the animals of the blank control after 3 hours is rated 100%, and the mean value of the increase in paw volume of the animals of the substance groups expressed as a percentage thereof. Pain threshold after 3 hours reflects the increase or decrease in percent, compared to the initial value.
In order to be able to calculate the ED50 according to the method by Lichtfield and Wilcoxon (J.P.E.T. 96:99, 1949), those animals in a dose group are considered protected when the paw swelling was at least 40% less than that of the blank control.

[12] = in vivo; details: mouse
[13] = in vivo; details: rat, po
Method: experimental animals are male mice (NMRI) weighing 16 to 24 g and male rats (SIV 50) weighing 120 to 180 g.
Prior to the beginning of the test, all animals are kept fasting for 16 to 18 hours, however water is offered ad libitum. 6 mice and 4 or 6 rats belonged to each dosage group and the doses between each group are increased logarithmically. The volume of liquid administered during testing amounted to 2 ml/100 g body weight. The substances tested are suspended in 1 percent Tragacanth mucilage and administered intragastrically via a gastric tube.

[14] = system: Granulation Tissue; test: Cotton-pellet test (granulation tissue); type: in vivo; details: rat, sc., section K; for increase in body weight %: control 27

CCOC(=N)c1sc2ccccc2c1O [Example 2, Ethyl 3-Hydroxy-Benzo[b]Thiophene-2-Carboximidate]
Swelling ([1]; 2 × 125.0 mg/kg): 81% | anti-inflammatory effect ([2]; all test models): proved in all test models; also recorded: of the same order as that of the most potent commercially available anti-inflammatory preparations | analgesic activity ([2]; compared to customary anti-inflammatory preparations): particularly marked | anti-inflammatory effect ([2]; doses as low as 50 mg/kg): clear anti-inflammatory effect | toxicity levels vs standard substances ([2]; in vivo): very favorable | antipyretic effect ([3]; 150 mg/kg vs 300 mg/kg acetylsalicylic acid): considerably more effective than 300 mg/kg of acetylsalicylic acid | antipyretic effect (decreasing body temperature) ([3]; yeast fever, vs control substances): superiority of the Example 2 substance for decreasing body temperature; also recorded: stronger than that of comparable substances | ED50 [4]: 93.1 mg/kg | therapeutic ratio [4]: 42.9 | 1st Phase (paw edema) ([5]; 62.5 mg/kg): 65% | 2nd Phase (paw edema) ([5]; 62.5 mg/kg): 73% | 3 Hrs. (total paw edema) ([5]; 62.5 mg/kg): 62% | 1st Phase (paw edema) ([5]; 125.0 mg/kg): 65% | 2nd Phase (paw edema) ([5]; 125.0 mg/kg): 27% | 3 Hrs. (total paw edema) ([5]; 125.0 mg/kg): 42% | 1st Phase (paw edema) ([5]; 250.0 mg/kg): 29% | 2nd Phase (paw edema) ([5]; 250.0 mg/kg): 20% | 3 Hrs. (total paw edema) ([5]; 250.0 mg/kg): 25% | Granulation Tissue % (Dry Weight) ([6]; 2 × 75 mg/kg daily): 78% | Increase in Body Weight ([6]; 2 × 75 mg/kg daily): not influenced | 60 Minutes (paw edema) ([7]; 25.0 mg/kg): 36% | 120 Minutes (paw edema) ([7]; 25.0 mg/kg): 44% | 180 Minutes (paw edema) ([7]; 25.0 mg/kg): 50% | 60 Minutes (paw edema) ([7]; 50.0 mg/kg): 62% | 120 Minutes (paw edema) ([7]; 50.0 mg/kg): 40% | 180 Minutes (paw edema) ([7]; 50.0 mg/kg): 5% | Granuloma Pouch Dry Weight ([8]; 2 × 125 mg/kg daily): 70% | Increase in Body Weight ([8]; 2 × 125 mg/kg daily): not influenced | Secretion ([8]; 2 × 125 mg/kg daily): 59% | LD50 [9]: 3.890 mg/kg | analgesic activity ([10]; as shown in (H)): sufficient analgesic activity | Pain Threshold (change vs initial value) ([11]; 31.2 mg/kg): +10% | Volume (increase in paw volume, blank control = 100%) ([11]; 31.2 mg/kg): 77% | Pain Threshold (change vs initial value) ([11]; 62.5 mg/kg): +46% | Volume (increase in paw volume, blank control = 100%) ([11]; 62.5 mg/kg): 50% | Volume (increase in paw volume, blank control = 100%) ([11]; 125.0 mg/kg): 35%

COc1ccc2c(c1)c(CC(=O)O)c(C)n2C(=O)c1ccc(Cl)cc1 [Indomethacin, 1-(p-Chlorobenzoyl)-5-methoxy-2-methylindole-3-acetic acid]
Swelling ([1]; 2 × 2.5 mg/kg): 80% | ED50 [4]: 0.9 mg/kg | therapeutic ratio [4]: 33.3 | 1st Phase (paw edema) ([5]; 1.0 mg/kg): 65% | 2nd Phase (paw edema) ([5]; 1.0 mg/kg): 80% | 3 Hrs. (total paw edema) ([5]; 1.0 mg/kg): 73% | 1st Phase (paw edema) ([5]; 5.0 mg/kg): 80% | 2nd Phase (paw edema) ([5]; 5.0 mg/kg): 73% | 3 Hrs. (total paw edema) ([5]; 5.0 mg/kg): 73% | Granulation Tissue % (Dry Weight) ([6]; 2 × 1.5 mg/kg daily): 80% | Increase in Body Weight ([6]; 2 × 1.5 mg/kg daily): not influenced | granulation tissue % dry weight ([6]; ig., 2×1,5 mg/kg daily, NaCl control group): 91% | granulation tissue % dry weight ([6]; ig., 2×1,5 mg/kg daily, tragacanth control group): 65% | 60 Minutes (paw edema) ([7]; 2.5 mg/kg): 79% | 120 Minutes (paw edema) ([7]; 2.5 mg/kg): 81% | 180 Minutes (paw edema) ([7]; 2.5 mg/kg): 81% | Exitus (footnote) ([8]; 2 × 1.5 mg/kg daily): Exitus of an animal | Granuloma Pouch Dry Weight ([8]; 2 × 1.5 mg/kg daily): 98% | Increase in Body Weight ([8]; 2 × 1.5 mg/kg daily): not influenced | Secretion ([8]; 2 × 1.5 mg/kg daily): 134% | LD50 ([12]; po): < 10 mg/kg | LD50 [13]: 20 to 30 mg/kg | Notes (analgesic activity) ([10]; i.g.): slightly effective | protection ([10]; i.g., starting with 20 mg/kg): approx. 50% | Pain Threshold (change vs initial value) ([11]; 5.0 mg/kg): -22% | Volume (increase in paw volume, blank control = 100%) ([11]; 5.0 mg/kg): 131% | Pain Threshold (change vs initial value) ([11]; 20.0 mg/kg): +11% | Volume (increase in paw volume, blank control = 100%) ([11]; 20.0 mg/kg): 108% | change in vivo at 5 mg/kg ([11]; po, ig., 5 mg/kg, section K): -22% | response vs control in vivo at 5 mg/kg ([11]; po, ig., 5 mg/kg, section K, read-out: volume (paw, control = 100%)): 100%

CCN(CC)CCNC(=N)c1sc2ccccc2c1O [Example 30]
granulation tissue % dry weight ([6]; sc., 2×75,0 mg/kg daily): 68% | LD50 ([12]; po): ~1000 mg/kg | LD50 ([12]; sc): ~1000 mg/kg | granulation tissue % dry weight ([14]; 2×50,0 mg/kg daily): 82% | increase in body weight % ([14]; 2×50,0 mg/kg daily): 27% | increase in body weight % ([14]; 2×75,0 mg/kg daily): 27% | change in vivo at 150 mg/kg ([11]; sc., 150 mg/kg, section K (control -26)): 18% | response vs control in vivo at 150 mg/kg ([11]; sc., 150 mg/kg, section K, read-out: volume (paw, control = 100%)): 53%

Reference: patent US3971814A, “Benzo(b)thiophene derivatives” (priority 1972, dated 1976)
